These results are taken from US20240166617A1, “PHOSPHOINOSITIDE 3 KINASE BETA INHIBITORS AND COMPOSITIONS AND METHODS THEREOF” (Geode Therapeutics Inc., priority 2021, published 2024).

SMILES strings stand for the structures. Where two headings read alike, the source gives them in different places. Where only a bound is given, the exact number is not on record here.

Test [1] deals with phosphorylation of AKT in HCC70 cells. In words: Cellular assay: phosphorylation of AKT in HCC70 cells (western blotting). The conditions noted are these: Homo sapiens, HCC70, 1 h. Type of test: cell-based. Here is the method: Cellular activity of PI3Kβ inhibitors was determined by quantifying the phosphorylation of AKT in HCC70 cells. AKT phosphorylated at Ser473 and Thr308 were measured using western blotting and specific primary antibodies from Cell Signaling (CST), Danvers, MA. On day 1, HCC70 cells (ATCC #CRL-2315) were seeded into Falcon 12-well cell Culture Plate (Corning #353043) at 100,000 cells per well, in 1 ml complete culture medium (RPMI-1640, GIBCO #11875093) containing 10% heat inactivated FBS (GIBCO #10438026), 1% Pen-Strep (GIBCO #15140122) and incubated at 37° AC, 5% CO2 overnight. On day 2, compound (500 nM) or DMSO (0.1%, Sigma Aldrich #8418) was added and cells were further incubated for 60 min at 37° AC, 5% CO2 in a total volume of 1 ml fresh medium.
At the end of the cell treatment period, media were removed by aspiration and adherent cells were lysed in 100 uL RIPA buffer (Sigma Aldrich #R0278). Equal volume (15 uL) of proteins was resolved by SDS-PAGE and transferred to PVDF (Millipore #IPFL00010) membrane for immunoblot analysis. Primary antibodies to the following proteins were used for immunoblotting: phosphor-AKT (Ser473) (CST #4060), phosphor-AKT (Thr308) (CST #2965), total AKT (CST #9272). Secondary goat anti-rabbit IgG fluorophore conjugated antibody (Invitrogen #A21109) was used to visualize the indicated proteins on an Odyssey CLx imaging system (Li-Cor). Quantification of band intensities was performed using Odyssey 3.0 software. Inhibition of Akt activity was calculated by band intensities using the formula: […]
Index was evaluated by % of AI. Data represent Index+(20˜60%), ++(60%˜80%), +++(80%˜90%), and ++++>90%.
Background: A western blot detects proteins with antibodies after separation by electrophoresis.

For the next test, the target named is T1, PIK3Cb_h (Homo sapiens, UniProt P42338).
T1 construct: purchased Eurofins DiscoveRx Corporation
In words: Enzyme binding assay (KINOMEscan). The conditions noted are these: Eurofins DiscoveRx. Here is the method: Kinase enzyme binding affinities of compounds disclosed herein were determined using the KINOMEscan technology performed by Eurofins DiscoveRx Corporation, San Diego, California, USA (www.eurofinsdiscoveryservices.com). Table 2 reports the obtained PIK3β Kd values (nM) of, with the PIK3β Kd being the inhibitor binding constant. Table 3 reports the obtained Kd values (nM), with the Kd being the inhibitor binding constant: […]

[2] abbreviates: HCC70 cells, compound 500 nM, 60 min, inhibition of Akt activity from band intensities, read-out: Index of AI (HCC70) p-AKT Thr 308.
Where [3] appears, read: HCC70 cells, compound 500 nM, 60 min, inhibition of Akt activity from band intensities, read-out: Index of AI (HCC70) p-AKT ser 473.
Setting [4] is: read-out: Index of AI (HCC70) p-AKT Thr 308.
The mark [5] stands for this setting: read-out: Index of AI (HCC70) p-AKT ser 473.

T1 sequence (P42338 whole entry): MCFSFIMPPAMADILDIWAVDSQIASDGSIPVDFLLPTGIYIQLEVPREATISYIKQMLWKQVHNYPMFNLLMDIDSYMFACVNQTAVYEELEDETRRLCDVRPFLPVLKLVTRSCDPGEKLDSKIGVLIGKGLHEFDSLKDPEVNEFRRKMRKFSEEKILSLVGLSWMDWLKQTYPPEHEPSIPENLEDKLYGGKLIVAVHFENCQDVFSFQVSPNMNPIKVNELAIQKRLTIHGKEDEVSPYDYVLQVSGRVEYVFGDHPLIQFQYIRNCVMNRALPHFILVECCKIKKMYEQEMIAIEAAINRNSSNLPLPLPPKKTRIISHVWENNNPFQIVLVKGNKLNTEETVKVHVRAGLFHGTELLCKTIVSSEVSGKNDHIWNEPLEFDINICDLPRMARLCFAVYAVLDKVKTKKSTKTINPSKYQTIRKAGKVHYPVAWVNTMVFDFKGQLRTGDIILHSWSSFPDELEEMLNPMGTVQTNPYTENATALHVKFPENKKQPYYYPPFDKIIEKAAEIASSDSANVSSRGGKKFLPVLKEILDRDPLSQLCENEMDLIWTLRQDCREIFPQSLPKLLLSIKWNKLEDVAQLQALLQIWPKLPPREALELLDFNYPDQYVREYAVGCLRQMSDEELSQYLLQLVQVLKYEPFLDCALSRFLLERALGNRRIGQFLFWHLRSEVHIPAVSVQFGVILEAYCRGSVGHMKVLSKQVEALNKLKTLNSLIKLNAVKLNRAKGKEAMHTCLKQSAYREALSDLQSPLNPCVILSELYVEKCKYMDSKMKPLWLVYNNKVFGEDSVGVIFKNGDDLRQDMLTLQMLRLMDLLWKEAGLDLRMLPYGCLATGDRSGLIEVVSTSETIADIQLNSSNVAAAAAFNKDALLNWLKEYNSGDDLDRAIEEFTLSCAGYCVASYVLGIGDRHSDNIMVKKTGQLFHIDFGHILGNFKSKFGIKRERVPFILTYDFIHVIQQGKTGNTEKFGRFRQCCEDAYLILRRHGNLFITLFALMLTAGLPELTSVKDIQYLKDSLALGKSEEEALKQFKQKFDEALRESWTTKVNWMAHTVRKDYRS

`CC(Nc1cc(F)cc(F)c1)c1cc(NC(=O)C2CCCC2)cc2c(=O)cc(N3CCOCC3)oc12` (stereo not drawn) [Compound 12, N-(8-(1-((3,5-difluorophenyl)amino)ethyl)-2-morpholino-4-oxo-4H-chromen-6-yl)cyclopentanecarboxamide]: the inhibition at 0.5 µM in test [1] (setting [2]) and in test [1] (setting [3]) was over 90% each time. The compound also displayed a Kd at PIK3Cb_h of 0.55 nM.
Consider `CC(Nc1cc(F)cc(F)c1)c1cc(NS(C)(=O)=O)cc2c(=O)cc(N3CCOCC3)oc12` (stereo not drawn) [Compound 13, N-(8-(1-((3,5-difluorophenyl)amino)ethyl)-2-morpholino-4-oxo-4H-chromen-6-yl)methanesulfonamide], for which the inhibition at 0.5 µM in test [1] (setting [2]) and in test [1] (setting [3]) was 80 to 90% each time. The compound further returned a Kd on PIK3Cb_h of 0.14 nM.
As for `O=C(NC1CCOCC1)c1cc(CN2CCc3c(F)cc(F)cc32)c2oc(N3CCOCC3)cc(=O)c2c1` [Compound 83, 8-((4,6-difluoroindolin-1-yl)methyl)-2-morpholino-4-oxo-N-(tetrahydro-2H-pyran-4-yl)-4H-chromene-6-carboxamide], the inhibition at 0.5 µM in test [1] (setting [2]) and in test [1] (setting [3]) was 60 to 80% in each case.
For `CC(C)(O)CNC(=O)c1cc(CN2CCc3c(F)cc(F)cc32)c2oc(N3CCOCC3)cc(=O)c2c1` [Compound 84, 8-((4,6-difluoroindolin-1-yl)methyl)-N-(2-hydroxy-2-methylpropyl)-2-morpholino-4-oxo-4H-chromene-6-carboxamide], the inhibition at 0.5 µM in test [1] (setting [2]) and in test [1] (setting [3]) was 80 to 90% in each case.
On to `CC(C)CNC(=O)c1cc(CN2CCc3c(F)cc(F)cc32)c2oc(N3CCOCC3)cc(=O)c2c1` [Compound 85, 8-((4,6-difluoroindolin-1-yl)methyl)-N-isobutyl-2-morpholino-4-oxo-4H-chromene-6-carboxamide], for which the inhibition at 0.5 µM in test [1] (setting [2]) and in test [1] (setting [3]) was 60 to 80% each time.
Turning to `CNC(=O)c1cc(CN2CCc3c(F)cc(F)cc32)c2oc(N3CCOCC3)cc(=O)c2c1` [Compound 86, 8-((4,6-difluoroindolin-1-yl)methyl)-N-methyl-2-morpholino-4-oxo-4H-chromene-6-carboxamide], the inhibition at 0.5 µM in test [1] (setting [2]) and in test [1] (setting [3]) was over 90% in each case.
As to `CC1(C)CN(C(=O)c2cc(CN3CCc4c(F)cc(F)cc43)c3oc(N4CCOCC4)cc(=O)c3c2)C1` [Compound 87, 8-((4,6-difluoroindolin-1-yl)methyl)-6-(3,3-dimethylazetidine-1-carbonyl)-2-morpholino-4H-chromen-4-one], the inhibition at 0.5 µM in test [1] (setting [2]) and in test [1] (setting [3]) was 60 to 80% in each case.
Turning to `CC1(C#N)CN(C(=O)c2cc(CN3CCc4c(F)cc(F)cc43)c3oc(N4CCOCC4)cc(=O)c3c2)C1` [Compound 88, 1-(8-((4,6-difluoroindolin-1-yl)methyl)-2-morpholino-4-oxo-4H-chromene-6-carbonyl)-3-methylazetidine-3-carbonitrile], the inhibition at 0.5 µM in test [1] (setting [2]) and in test [1] (setting [3]) was 60 to 80% throughout.
For the compound `O=C(c1cc(CN2CCc3c(F)cc(F)cc32)c2oc(N3CCOCC3)cc(=O)c2c1)N1CC(O)C1` [Compound 89, 8-((4,6-difluoroindolin-1-yl)methyl)-6-(3-hydroxyazetidine-1-carbonyl)-2-morpholino-4H-chromen-4-one], in test [1] (setting [3]), the inhibition at 0.5 µM fell in the range of 20 to 60%.
As to `CN(C)C(=O)c1cc(CN2CCc3c(F)cc(F)cc32)c2oc(N3CCO[C@H](CO)C3)cc(=O)c2c1` [Compound 92, (S)-8-((4,6-difluoroindolin-1-yl)methyl)-2-(2-(hydroxymethyl)morpholino)-N,N-dimethyl-4-oxo-4H-chromene-6-carboxamide], the inhibition at 0.5 µM in test [1] (setting [4]) and in test [1] (setting [5]) was 60 to 80% throughout.
In the case of `CN(C)C(=O)c1cc(CN2CCc3c(F)cc(F)cc32)c2oc(N3CCO[C@H](CF)C3)cc(=O)c2c1` [Compound 93, (S)-8-((4,6-difluoroindolin-1-yl)methyl)-2-(2-(fluoromethyl)morpholino)-N,N-dimethyl-4-oxo-4H-chromene-6-carboxamide], the inhibition at 0.5 µM in test [1] (setting [2]) and in test [1] (setting [3]) was 80 to 90% each time.
Turning to `CC(Nc1ccc(F)c(F)c1)c1cc(C(=O)N2CC[C@@H](N(C)C)C2)cn2c(=O)cc(N3CCOCC3)nc12` (stereo partly drawn) [Compound 94, 9-(1-((3,4-difluorophenyl)amino)ethyl)-7-((R)-3-(dimethylamino)pyrrolidine-1-carbonyl)-2-morpholino-4H-pyrido[1,2-a]pyrimidin-4-one], the inhibition at 0.5 µM in test [1] (setting [4]) and in test [1] (setting [5]) was 60 to 80% each time.
As for `CC(Nc1cccc(F)c1F)c1cc(C(=O)N2CC[C@@H](N(C)C)C2)cn2c(=O)cc(N3CCOCC3)nc12` (stereo partly drawn) [Compound 95, 9-(1-((2,3-difluorophenyl)amino)ethyl)-7-((R)-3-(dimethylamino)pyrrolidine-1-carbonyl)-2-morpholino-4H-pyrido[1,2-a]pyrimidin-4-one], the inhibition at 0.5 µM in test [1] (setting [4]) and in test [1] (setting [5]) was 60 to 80% each time.
As for `CC1Cc2c(F)cc(F)cc2N1C(C)c1cc(C(=O)N(C)C)cn2c(=O)cc(N3CCOCC3)nc12` (stereo not drawn) [Compound 96, 9-(1-(4,6-difluoro-2-methylindolin-1-yl)ethyl)-N,N-dimethyl-2-morpholino-4-oxo-4H-pyrido[1,2-a]pyrimidine-7-carboxamide], the inhibition at 0.5 µM in test [1] (setting [2]) and in test [1] (setting [3]) was over 90% throughout.
Turning to `CC(c1cc(C(=O)N2CC[C@@H](N(C)C)C2)cn2c(=O)cc(N3CCOCC3)nc12)N1CCc2cccc(Cl)c21` (stereo partly drawn) [Compound 97, 9-(1-(7-chloroindolin-1-yl)ethyl)-7-((R)-3-(dimethylamino)pyrrolidine-1-carbonyl)-2-morpholino-4H-pyrido[1,2-a]pyrimidin-4-one], the inhibition at 0.5 µM in test [1] (setting [2]) and in test [1] (setting [3]) was 20 to 60% throughout.
Turning to `CN(C)C(=O)c1cc(CN2CCc3c(F)cc(F)cc32)c2nc(N3CCOCC3)cc(=O)n2c1` [Compound 98, 9-((4,6-difluoroindolin-1-yl)methyl)-N,N-dimethyl-2-morpholino-4-oxo-4H-pyrido[1,2-a]pyrimidine-7-carboxamide], the inhibition at 0.5 µM in test [1] (setting [2]) and in test [1] (setting [3]) was 80 to 90% each time.
In the case of `CN(C)C(=O)c1cc(CN2CCc3c(F)ccc(F)c32)c2nc(N3CCOCC3)cc(=O)n2c1` [Compound 99, 9-((4,7-difluoroindolin-1-yl)methyl)-N,N-dimethyl-2-morpholino-4-oxo-4H-pyrido[1,2-a]pyrimidine-7-carboxamide], the inhibition at 0.5 µM in test [1] (setting [2]) and in test [1] (setting [3]) was 80 to 90% each time.
For the compound `CN(C)C(=O)c1cc(CN2CCc3c(Cl)ccc(F)c32)c2nc(N3CCOCC3)cc(=O)n2c1` [Compound 100, 9-((4-chloro-7-fluoroindolin-1-yl)methyl)-N,N-dimethyl-2-morpholino-4-oxo-4H-pyrido[1,2-a]pyrimidine-7-carboxamide], the inhibition at 0.5 µM in test [1] (setting [2]) and in test [1] (setting [3]) was 80 to 90% in each case.
Regarding `C[C@@H]1CN(c2cc(=O)n3cc(C(=O)N(C)C)cc(CN4CCc5c(F)cccc54)c3n2)CCO1` [Compound 101, (R)-9-((4-fluoroindolin-1-yl)methyl)-N,N-dimethyl-2-(2-methylmorpholino)-4-oxo-4H-pyrido[1,2-a]pyrimidine-7-carboxamide], the inhibition at 0.5 µM in test [1] (setting [2]) and in test [1] (setting [3]) was over 90% each time.

One may read the Kd as the concentration at which binding is half-saturated. Read a low Kd as a tighter complex.
